Target: T1, MAGE-A11:PCF11 interaction (GST-MAGE-A11 and FAM-PCF11_4) (Homo sapiens, UniProt P43364)
T1 construct: GST-MAGE-A11 MHD (human MAGE-A11 MHD amino acid 218-429); made in house; host or cells: E. coli BL21(DE3)
T1 sequence (P43364 218-429): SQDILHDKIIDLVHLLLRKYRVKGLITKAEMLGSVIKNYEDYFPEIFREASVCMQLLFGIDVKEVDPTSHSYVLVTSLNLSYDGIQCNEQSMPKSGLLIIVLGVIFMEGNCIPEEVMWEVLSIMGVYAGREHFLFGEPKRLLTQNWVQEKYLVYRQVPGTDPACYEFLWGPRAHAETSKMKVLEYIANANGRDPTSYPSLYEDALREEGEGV
Test: TR-FRET primary / single point screen at 15 µM
Type: binding
Summary of the method: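 Single-point screen at 15 µM final compound in 50 mM Tris pH 7.5, 20 mM MgCl2, 0.1 mg/ml BSA, 1 mM DTT, with 200 nM FAM-PCF11_4, 5 nM Tb-anti-GST and 5 nM GST-MAGE-A11. After 90 min at room temperature, the 520/490 nm TR-FRET ratio (340 nm excitation) gave %Inhibition against no-MAGE-A11 and DMSO controls.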

[1] = single point TR-FRET screening of quinoline compounds against MAGE-A11:PCF11, 15 µM
[2] = single point TR-FRET screening of 797 quinoline compounds against MAGE-A11:PCF11

COc1ccc2nc3cc(Cl)ccc3c(NCCCNCc3ccc(Cl)c([N+](=O)[O-])c3)c2c1 [SJ000523036]
percent inhibition (TR-FRET) [1]: -95.379

COc1ccc2nc3cc(Cl)ccc3c(NCCCNCc3cccc(C#N)c3)c2c1 [SJ000523037]
percent inhibition (TR-FRET) [2]: -333.152

COc1ccc2nc3cc(Cl)ccc3c(NCCCNCc3ccc4ccccc4c3)c2c1 [SJ000523038]
percent inhibition (TR-FRET) [2]: -109.452

CCCN(CCCNc1ccnc2cc(Cl)ccc12)Cc1ccc(-c2ccccc2)cc1 [SJ000523039]
percent inhibition (TR-FRET) [1]: 30.2293

CCCN(CCCNc1ccnc2cc(Cl)ccc12)Cc1ccc2ccccc2c1 [SJ000523040]
percent inhibition (TR-FRET) [1]: 32.8503

CCCN(CCCNc1ccnc2cc(Cl)ccc12)Cc1cccc(C)c1 [SJ000523041]
percent inhibition (TR-FRET) [1]: 28.5489

CCCN(CCCNc1ccnc2cc(Cl)ccc12)Cc1ccc(C(=O)OC)cc1 [SJ000523042]
percent inhibition (TR-FRET) [1]: 16.7163

CCCN(CCCNc1ccnc2cc(Cl)ccc12)Cc1ccc(Cl)cc1Cl [SJ000523043]
percent inhibition (TR-FRET) [1]: 12.0952

CCCN(CCCNc1ccnc2cc(Cl)ccc12)Cc1ccc(-c2ccccc2[N+](=O)[O-])o1 [SJ000523044]
percent inhibition (TR-FRET) [1]: 9.266

CCCN(CCCNc1ccnc2cc(Cl)ccc12)Cc1ccc(-c2cccc(Cl)c2)o1 [SJ000523045]
percent inhibition (TR-FRET) [1]: 16.2262

CCCN(CCCNc1ccnc2cc(Cl)ccc12)Cc1c(Cl)ccc(Cl)c1Cl [SJ000523046]
percent inhibition (TR-FRET) [1]: 17.7459

CCCN(CCCNc1ccnc2cc(Cl)ccc12)Cc1ccc([N+](=O)[O-])o1 [SJ000523047]
percent inhibition (TR-FRET) [1]: 9.575

CCCCCCN(CCC)CCCNc1ccnc2cc(Cl)ccc12 [SJ000523048]
percent inhibition (TR-FRET) [1]: 1.317

Clc1ccc2c(NCCCNCc3ccncc3)ccnc2c1 [SJ000523049]
percent inhibition (TR-FRET) [1]: 6.077

Clc1ccc2c(NCCCNCc3ccccn3)ccnc2c1 [SJ000523050]
percent inhibition (TR-FRET) [1]: 4.744

CSCCCNCCCNc1ccnc2cc(Cl)ccc12 [SJ000523051]
percent inhibition (TR-FRET) [1]: 14.9659

Clc1ccc2c(NCCCNCc3ccsc3)ccnc2c1 [SJ000523052]
percent inhibition (TR-FRET) [1]: 15.2459

CC(CCNCCCNc1ccnc2cc(Cl)ccc12)c1ccccc1 (stereo not shown) [SJ000523053]
percent inhibition (TR-FRET) [1]: 19.0144

CCCCCNCCCNc1ccnc2cc(Cl)ccc12 [SJ000523057]
percent inhibition (TR-FRET) [1]: 25.8183

Cc1c(CNCCCNc2ccnc3cc(Cl)ccc23)c(=O)n(-c2ccccc2)n1C [SJ000523058]
percent inhibition (TR-FRET) [1]: 5.584

O=[N+]([O-])c1ccccc1-c1ccc(CNCCCNc2ccnc3cc(Cl)ccc23)o1 [SJ000523068]
percent inhibition (TR-FRET) [1]: 21.6545

Clc1cccc(-c2ccc(CNCCCNc3ccnc4cc(Cl)ccc34)o2)c1 [SJ000523069]
percent inhibition (TR-FRET) [1]: 33.5128

CCCN(CCCNc1ccnc2cc(C(F)(F)F)ccc12)Cc1ccc(F)cc1 [SJ000523070]
percent inhibition (TR-FRET) [1]: 26.4363

CCCN(CCCNc1ccnc2cc(C(F)(F)F)ccc12)Cc1ccccc1[N+](=O)[O-] [SJ000523071]
percent inhibition (TR-FRET) [1]: -7.745

CCCN(CCCNc1ccnc2cc(C(F)(F)F)ccc12)Cc1ccccc1OC [SJ000523072]
percent inhibition (TR-FRET) [1]: 32.6098

CCCN(CCCNc1ccnc2cc(C(F)(F)F)ccc12)Cc1ccccc1C(=O)O [SJ000523073]
percent inhibition (TR-FRET) [1]: 16.8563

CCCN(CCCNc1ccnc2cc(C(F)(F)F)ccc12)Cc1cccc2ccccc12 [SJ000523074]
percent inhibition (TR-FRET) [1]: 14.3161

CCCN(CCCNc1ccnc2cc(C(F)(F)F)ccc12)Cc1ccc2ccccc2c1 [SJ000523075]
percent inhibition (TR-FRET) [1]: 11.3882

CCCN(CCCNc1ccnc2cc(C(F)(F)F)ccc12)Cc1cccc(C)c1 [SJ000523076]
percent inhibition (TR-FRET) [1]: 20.1719

CCCN(CCCNc1ccnc2cc(C(F)(F)F)ccc12)Cc1ccc(N(C)C)cc1 [SJ000523077]
percent inhibition (TR-FRET) [1]: 23.7127

CCCN(CCCNc1ccnc2cc(C(F)(F)F)ccc12)Cc1ccc(Cl)cc1Cl [SJ000523078]
percent inhibition (TR-FRET) [1]: 3.83

CCCN(CCCNc1ccnc2cc(C(F)(F)F)ccc12)Cc1ccc(OC)c(OC)c1 [SJ000523079]
percent inhibition (TR-FRET) [1]: 14.6566

CCCN(CCCNc1ccnc2cc(C(F)(F)F)ccc12)CCCc1ccccc1 [SJ000523080]
percent inhibition (TR-FRET) [1]: 28.0024

CCCN(CCCNc1ccnc2cc(C(F)(F)F)ccc12)CC(C)CC (stereo not shown) [SJ000523081]
percent inhibition (TR-FRET) [1]: 22.2827

CCCN(CCCNc1ccnc2cc(C(F)(F)F)ccc12)Cc1cc(C)ccc1C [SJ000523082]
percent inhibition (TR-FRET) [1]: 21.738

CCCCCCN(CCC)CCCNc1ccnc2cc(C(F)(F)F)ccc12 [SJ000523083]
percent inhibition (TR-FRET) [1]: 34.9477

Cc1cc(C)c(CN2CCC(Nc3ccnc4cc(Cl)ccc34)CC2)c(C)c1 [SJ000523084]
percent inhibition (TR-FRET) [2]: 11.7451

Clc1ccc2c(NC3CCN(CC4CCCCC4)CC3)ccnc2c1 [SJ000523085]
percent inhibition (TR-FRET) [2]: 15.4273

CCC(CC)CN1CCC(Nc2ccnc3cc(Cl)ccc23)CC1 [SJ000523086]
percent inhibition (TR-FRET) [2]: 9.754

Clc1ccc2c(NC3CCN(Cc4ccc5c(c4)OCO5)CC3)ccnc2c1 [SJ000523087]
percent inhibition (TR-FRET) [2]: 7.6432

CCCCCN1CCC(Nc2ccnc3cc(Cl)ccc23)CC1 [SJ000523088]
percent inhibition (TR-FRET) [2]: 12.1652

Fc1ccc(CN2CCC(Nc3ccnc4cc(Cl)ccc34)CC2)cc1F [SJ000523089]
percent inhibition (TR-FRET) [2]: -1.958

COc1ccc(CN2CCC(Nc3ccnc4cc(Cl)ccc34)CC2)cc1 [SJ000523090]
percent inhibition (TR-FRET) [2]: 23.7178

Fc1ccccc1CN1CCC(Nc2ccnc3cc(Cl)ccc23)CC1 [SJ000523091]
percent inhibition (TR-FRET) [2]: -0.9977

Fc1cccc(CN2CCC(Nc3ccnc4cc(Cl)ccc34)CC2)c1 [SJ000523092]
percent inhibition (TR-FRET) [2]: 6.622

Fc1ccc(CN2CCC(Nc3ccnc4cc(Cl)ccc34)CC2)cc1 [SJ000523093]
percent inhibition (TR-FRET) [2]: 10.6575

O=[N+]([O-])c1ccccc1CN1CCC(Nc2ccnc3cc(Cl)ccc23)CC1 [SJ000523094]
percent inhibition (TR-FRET) [2]: -2.0257

O=[N+]([O-])c1cccc(CN2CCC(Nc3ccnc4cc(Cl)ccc34)CC2)c1 [SJ000523095]
percent inhibition (TR-FRET) [2]: 0.8927

O=[N+]([O-])c1ccc(CN2CCC(Nc3ccnc4cc(Cl)ccc34)CC2)cc1 [SJ000523096]
percent inhibition (TR-FRET) [2]: -4.954

COc1ccccc1CN1CCC(Nc2ccnc3cc(Cl)ccc23)CC1 [SJ000523097]
percent inhibition (TR-FRET) [2]: 8.596

O=C(O)c1ccccc1CN1CCC(Nc2ccnc3cc(Cl)ccc23)CC1 [SJ000523098]
percent inhibition (TR-FRET) [2]: -2.194

Clc1ccc2c(NC3CCN(Cc4cccc5ccccc45)CC3)ccnc2c1 [SJ000523099]
percent inhibition (TR-FRET) [2]: -6.179

Clc1ccc2c(NC3CCN(Cc4ccc5ccccc5c4)CC3)ccnc2c1 [SJ000523100]
percent inhibition (TR-FRET) [2]: 4.171

Cc1cccc(CN2CCC(Nc3ccnc4cc(Cl)ccc34)CC2)c1 [SJ000523101]
percent inhibition (TR-FRET) [2]: 18.5377

CN(C)c1ccc(CN2CCC(Nc3ccnc4cc(Cl)ccc34)CC2)cc1 [SJ000523102]
percent inhibition (TR-FRET) [2]: 13.0905

COc1ccc(CN2CCC(Nc3ccnc4cc(Cl)ccc34)CC2)cc1OC [SJ000523103]
percent inhibition (TR-FRET) [2]: 11.7451

Clc1ccc2c(NC3CCN(CCCc4ccccc4)CC3)ccnc2c1 [SJ000523104]
percent inhibition (TR-FRET) [2]: 20.6486

CCC(C)CN1CCC(Nc2ccnc3cc(Cl)ccc23)CC1 (stereo not shown) [SJ000523105]
percent inhibition (TR-FRET) [2]: 11.185

Cc1ccc(C)c(CN2CCC(Nc3ccnc4cc(Cl)ccc34)CC2)c1 [SJ000523106]
percent inhibition (TR-FRET) [2]: 18.6767

COc1cccc(CN2CCC(Nc3ccnc4cc(Cl)ccc34)CC2)c1 [SJ000523107]
percent inhibition (TR-FRET) [2]: 3.1492

CCCCCCN1CCC(Nc2ccnc3cc(Cl)ccc23)CC1 [SJ000523108]
percent inhibition (TR-FRET) [2]: 29.2961

CCCN(CCCNc1c2ccc(Cl)cc2nc2ccc(OC)cc12)CC1CCOC1 (stereo not shown) [SJ000575149]
percent inhibition (TR-FRET) [1]: -35.9356

CCCN(CCCNc1c2ccc(Cl)cc2nc2ccc(OC)cc12)CC(C)C [SJ000575150]
percent inhibition (TR-FRET) [1]: -21.3723

CCCN(CCCCCC(=O)OC)CCCNc1c2ccc(Cl)cc2nc2ccc(OC)cc12 [SJ000575151]
percent inhibition (TR-FRET) [1]: -37.4059

CCCN(CCCNc1c2ccc(Cl)cc2nc2ccc(OC)cc12)Cc1cccnc1 [SJ000575152]
percent inhibition (TR-FRET) [1]: -23.4028

CCCN(CCCNc1ccnc2cc(C(F)(F)F)ccc12)Cc1nccn1C [SJ000575170]
percent inhibition (TR-FRET) [1]: 7.1241

CCCN(CCCNc1ccnc2cc(C(F)(F)F)ccc12)Cc1ccc2[nH]ccc2c1 [SJ000575171]
percent inhibition (TR-FRET) [1]: 32.8899

CCCN(CCCNc1ccnc2cc(C(F)(F)F)ccc12)Cc1scnc1C [SJ000575179]
percent inhibition (TR-FRET) [1]: 5.164

CCCN(CCCNc1ccnc2cc(C(F)(F)F)ccc12)Cc1cccnc1Br [SJ000575180]
percent inhibition (TR-FRET) [1]: 5.164

CCCN(CCCNc1ccnc2cc(C(F)(F)F)ccc12)Cc1ncc[nH]1 [SJ000575181]
percent inhibition (TR-FRET) [1]: 9.345

CCCN(CCCNc1ccnc2cc(C(F)(F)F)ccc12)Cc1cnn(C)c1 [SJ000575182]
percent inhibition (TR-FRET) [1]: 15.6779

CCCN(CCCNc1ccnc2cc(C(F)(F)F)ccc12)Cc1nccs1 [SJ000575189]
percent inhibition (TR-FRET) [1]: 8.665

CCCN(CCCNc1ccnc2cc(C(F)(F)F)ccc12)CC1CCOC1 (stereo not shown) [SJ000575190]
percent inhibition (TR-FRET) [1]: 1.787

— PMC7529893, “Structural basis for substrate recognition and chemical inhibition of oncogenic MAGE ubiquitin ligases” (Nature Communications, 2020)
